“And” between values parts separate entries of the source, which are not always exact repeats. Equal values may be shown once. ± gives the expanded uncertainty stated by the source.
Conditions: Crystal

[F-].[F-].[Hg+2] [mercuric difluoride]
Conditions | vapor or sublimation pressure
457 K | 0.00015 ± 2e-05 kPa
464 K | 0.00018 ± 3e-05 kPa
466 K | 0.00024 ± 4e-05 kPa
469 K | 0.0003 ± 5e-05 kPa
473 K | 0.00024 ± 4e-05 kPa
474 K | 0.00042 ± 6e-05 kPa
475 K | 0.00036 ± 5e-05 kPa
480 K | 0.00048 ± 7e-05 kPa
481 K | 0.00066 ± 0.0001 kPa and 0.00042 ± 6e-05 kPa
483 K | 0.00051 ± 8e-05 kPa and 0.00054 ± 8e-05 kPa
487 K | 0.0006 ± 9e-05 kPa
488 K | 0.00089 ± 0.00013 kPa
490 K | 0.00076 ± 0.00011 kPa and 0.00078 ± 0.00012 kPa
492 K | 0.00078 ± 0.00012 kPa
493 K | 0.00091 ± 0.00014 kPa
494 K | 0.00089 ± 0.00013 kPa
496 K | 0.00115 ± 0.00017 kPa and 0.00095 ± 0.00014 kPa and 0.00107 ± 0.00016 kPa
498 K | 0.00135 ± 0.0002 kPa and 0.00107 ± 0.00016 kPa
499 K | 0.00112 ± 0.00017 kPa
502 K | 0.00162 ± 0.00024 kPa and 0.00132 ± 0.0002 kPa
503 K | 0.00151 ± 0.00023 kPa
504 K | 0.00178 ± 0.00027 kPa
505 K | 0.00174 ± 0.00026 kPa
507 K | 0.00162 ± 0.00024 kPa and 0.00186 ± 0.00028 kPa
510 K | 0.00209 ± 0.00031 kPa
511 K | 0.00245 ± 0.00037 kPa
512 K | 0.00224 ± 0.00034 kPa
513 K | 0.00288 ± 0.00043 kPa and 0.00245 ± 0.00037 kPa
514 K | 0.00229 ± 0.00034 kPa
515 K | 0.00257 ± 0.00039 kPa
516 K | 0.00347 ± 0.00052 kPa
518 K | 0.00363 ± 0.00054 kPa
520 K | 0.00324 ± 0.00049 kPa
521 K | 0.00398 ± 0.0006 kPa and 0.00339 ± 0.00051 kPa
523 K | 0.00331 ± 0.0005 kPa
525 K | 0.00437 ± 0.00066 kPa and 0.00363 ± 0.00054 kPa
526 K | 0.00479 ± 0.00072 kPa
527 K | 0.00437 ± 0.00066 kPa and 0.00457 ± 0.00069 kPa
528 K | 0.00457 ± 0.00069 kPa
529 K | 0.0055 ± 0.00083 kPa
533 K | 0.00575 ± 0.00086 kPa
535 K | 0.00759 ± 0.0011 kPa and 0.00617 ± 0.00093 kPa
537 K | 0.00759 ± 0.0011 kPa
539 K | 0.00646 ± 0.00097 kPa
542 K | 0.00871 ± 0.0013 kPa
543 K | 0.01047 ± 0.0016 kPa and 0.00871 ± 0.0013 kPa
544 K | 0.01072 ± 0.0016 kPa
549 K | 0.00933 ± 0.0014 kPa
551 K | 0.01318 ± 0.002 kPa and 0.01175 ± 0.0018 kPa
552 K | 0.01445 ± 0.0022 kPa
555 K | 0.0138 ± 0.0021 kPa
557 K | 0.0166 ± 0.0025 kPa and 0.01318 ± 0.002 kPa
560 K | 0.01862 ± 0.0028 kPa and 0.01698 ± 0.0026 kPa
561 K | 0.01622 ± 0.0024 kPa
565 K | 0.02188 ± 0.0033 kPa
568 K | 0.02455 ± 0.0037 kPa
570 K | 0.02042 ± 0.0031 kPa
580 K | 0.02951 ± 0.0044 kPa
589 K | 0.04074 ± 0.0061 kPa

[F][Hg].[F][Hg] [mercury fluoride (Hg2F2)]
Conditions | vapor or sublimation pressure
496 K | 2.3e-05 ± 4e-06 kPa
503 K | 3.4e-05 ± 5e-06 kPa
508 K | 5.8e-05 ± 9e-06 kPa
509 K | 4.6e-05 ± 7e-06 kPa
515 K | 7.9e-05 ± 1.2e-05 kPa
516 K | 6.8e-05 ± 1e-05 kPa
520 K | 0.000102 ± 1.5e-05 kPa
524 K | 0.000138 ± 2.1e-05 kPa
526 K | 0.000138 ± 2.1e-05 kPa
531 K | 0.000204 ± 3.1e-05 kPa
533 K | 0.000229 ± 3.4e-05 kPa
536 K | 0.000288 ± 4.3e-05 kPa and 0.000214 ± 3.2e-05 kPa and 0.000229 ± 3.4e-05 kPa
539 K | 0.000275 ± 4.1e-05 kPa
542 K | 0.000389 ± 5.8e-05 kPa
543 K | 0.000324 ± 4.9e-05 kPa
544 K | 0.000407 ± 6.1e-05 kPa
545 K | 0.000437 ± 6.6e-05 kPa
546 K | 0.000501 ± 7.5e-05 kPa and 0.000363 ± 5.5e-05 kPa
547 K | 0.000437 ± 6.6e-05 kPa
548 K | 0.000501 ± 7.5e-05 kPa
549 K | 0.000457 ± 6.9e-05 kPa
552 K | 0.000589 ± 8.8e-05 kPa
553 K | 0.00055 ± 8.3e-05 kPa
554 K | 0.000871 ± 0.00013 kPa and 0.000646 ± 9.7e-05 kPa and 0.000575 ± 8.6e-05 kPa
556 K | 0.000676 ± 0.0001 kPa
557 K | 0.000794 ± 0.00012 kPa and 0.000724 ± 0.00011 kPa
559 K | 0.000871 ± 0.00013 kPa and 0.000724 ± 0.00011 kPa and 0.000851 ± 0.00013 kPa
560 K | 0.000794 ± 0.00012 kPa
562 K | 0.001 ± 0.00015 kPa and 0.000912 ± 0.00014 kPa
563 K | 0.001 ± 0.00015 kPa
564 K | 0.001288 ± 0.00019 kPa and 0.001 ± 0.00015 kPa
565 K | 0.001148 ± 0.00017 kPa and 0.001259 ± 0.00019 kPa
567 K | 0.001259 ± 0.00019 kPa
569 K | 0.00123 ± 0.00018 kPa
571 K | 0.001585 ± 0.00024 kPa
572 K | 0.001585 ± 0.00024 kPa and 0.001445 ± 0.00022 kPa
573 K | 0.002138 ± 0.00032 kPa and 0.001549 ± 0.00023 kPa and 0.001349 ± 0.0002 kPa
574 K | 0.001585 ± 0.00024 kPa
576 K | 0.002042 ± 0.00031 kPa
577 K | 0.002399 ± 0.00036 kPa
578 K | 0.00195 ± 0.00029 kPa and 0.002089 ± 0.00031 kPa and 0.001905 ± 0.00029 kPa
579 K | 0.002089 ± 0.00031 kPa
580 K | 0.002089 ± 0.00031 kPa
582 K | 0.003162 ± 0.00047 kPa
583 K | 0.002089 ± 0.00031 kPa
584 K | 0.003236 ± 0.00049 kPa and 0.002512 ± 0.00038 kPa
585 K | 0.002692 ± 0.0004 kPa and 0.002818 ± 0.00042 kPa
586 K | 0.002884 ± 0.00043 kPa
588 K | 0.003236 ± 0.00049 kPa and 0.003162 ± 0.00047 kPa
589 K | 0.00309 ± 0.00046 kPa
590 K | 0.003548 ± 0.00053 kPa
591 K | 0.004571 ± 0.00069 kPa
592 K | 0.004467 ± 0.00067 kPa
593 K | 0.003631 ± 0.00055 kPa
594 K | 0.004467 ± 0.00067 kPa
595 K | 0.004365 ± 0.00065 kPa
596 K | 0.004571 ± 0.00069 kPa and 0.004365 ± 0.00065 kPa
599 K | 0.006026 ± 0.0009 kPa and 0.004786 ± 0.00072 kPa
600 K | 0.006918 ± 0.001 kPa and 0.00537 ± 0.00081 kPa
601 K | 0.005754 ± 0.00086 kPa
605 K | 0.007762 ± 0.0012 kPa and 0.006457 ± 0.00097 kPa and 0.006761 ± 0.001 kPa
606 K | 0.006918 ± 0.001 kPa [middle of 4 runs]
609 K | 0.00955 ± 0.0014 kPa
611 K | 0.008128 ± 0.0012 kPa and 0.00955 ± 0.0014 kPa and 0.007413 ± 0.0011 kPa
614 K | 0.01 ± 0.0015 kPa and 0.00871 ± 0.0013 kPa
615 K | 0.01 ± 0.0015 kPa
616 K | 0.01259 ± 0.0019 kPa and 0.01072 ± 0.0016 kPa and 0.01097 ± 0.0016 kPa
617 K | 0.01148 ± 0.0017 kPa
618 K | 0.0123 ± 0.0018 kPa
619 K | 0.01023 ± 0.0015 kPa
622 K | 0.0138 ± 0.0021 kPa and 0.0123 ± 0.0018 kPa
623 K | 0.01514 ± 0.0023 kPa
624 K | 0.01738 ± 0.0026 kPa
625 K | 0.01862 ± 0.0028 kPa
626 K | 0.0138 ± 0.0021 kPa
628 K | 0.01549 ± 0.0023 kPa
629 K | 0.0195 ± 0.0029 kPa

Source: the NIST ThermoML archive (doi:10.1021/je800231f)
